# Legend:
# CHK2 = target: T1, CHK2 (Homo sapiens, UniProt O96017); test: Hot-Spot kinase profiling; format: biochemical; settings: read-out: % Enzyme Activity (Relative to DMSO Controls) CHK2
# T1 construct: purchased Reaction Biology Corp. (HotSpot kinase assay)
# Procedure: (§1) Activities of kinases were determined using Hot-SpotSM kinase assay which was performed by Reaction Biology Corp. (Malvern PA, USA) as described previously.
# FLT3 (F594_R595insR) = target: T2, FLT3 (F594_R595insR) (Homo sapiens, UniProt P36888, INS594R); test: Hot-Spot kinase profiling; format: biochemical
# T2 construct: purchased Reaction Biology Corp
# Procedure: as §1
# JAK2 = target: T3, JAK2 (Homo sapiens, UniProt O60674); test: Hot-Spot kinase profiling; format: biochemical; settings: read-out: % Enzyme Activity (Relative to DMSO Controls) JAK2
# T3 construct: purchased Reaction Biology Corp
# Procedure: as §1
# FLT1/VEGFR1 = target: T4, FLT1/VEGFR1 (Homo sapiens, UniProt P17948); test: Hot-Spot kinase profiling; format: biochemical
# T4 construct: purchased Reaction Biology Corp
# T4 sequence (P17948 27-1338): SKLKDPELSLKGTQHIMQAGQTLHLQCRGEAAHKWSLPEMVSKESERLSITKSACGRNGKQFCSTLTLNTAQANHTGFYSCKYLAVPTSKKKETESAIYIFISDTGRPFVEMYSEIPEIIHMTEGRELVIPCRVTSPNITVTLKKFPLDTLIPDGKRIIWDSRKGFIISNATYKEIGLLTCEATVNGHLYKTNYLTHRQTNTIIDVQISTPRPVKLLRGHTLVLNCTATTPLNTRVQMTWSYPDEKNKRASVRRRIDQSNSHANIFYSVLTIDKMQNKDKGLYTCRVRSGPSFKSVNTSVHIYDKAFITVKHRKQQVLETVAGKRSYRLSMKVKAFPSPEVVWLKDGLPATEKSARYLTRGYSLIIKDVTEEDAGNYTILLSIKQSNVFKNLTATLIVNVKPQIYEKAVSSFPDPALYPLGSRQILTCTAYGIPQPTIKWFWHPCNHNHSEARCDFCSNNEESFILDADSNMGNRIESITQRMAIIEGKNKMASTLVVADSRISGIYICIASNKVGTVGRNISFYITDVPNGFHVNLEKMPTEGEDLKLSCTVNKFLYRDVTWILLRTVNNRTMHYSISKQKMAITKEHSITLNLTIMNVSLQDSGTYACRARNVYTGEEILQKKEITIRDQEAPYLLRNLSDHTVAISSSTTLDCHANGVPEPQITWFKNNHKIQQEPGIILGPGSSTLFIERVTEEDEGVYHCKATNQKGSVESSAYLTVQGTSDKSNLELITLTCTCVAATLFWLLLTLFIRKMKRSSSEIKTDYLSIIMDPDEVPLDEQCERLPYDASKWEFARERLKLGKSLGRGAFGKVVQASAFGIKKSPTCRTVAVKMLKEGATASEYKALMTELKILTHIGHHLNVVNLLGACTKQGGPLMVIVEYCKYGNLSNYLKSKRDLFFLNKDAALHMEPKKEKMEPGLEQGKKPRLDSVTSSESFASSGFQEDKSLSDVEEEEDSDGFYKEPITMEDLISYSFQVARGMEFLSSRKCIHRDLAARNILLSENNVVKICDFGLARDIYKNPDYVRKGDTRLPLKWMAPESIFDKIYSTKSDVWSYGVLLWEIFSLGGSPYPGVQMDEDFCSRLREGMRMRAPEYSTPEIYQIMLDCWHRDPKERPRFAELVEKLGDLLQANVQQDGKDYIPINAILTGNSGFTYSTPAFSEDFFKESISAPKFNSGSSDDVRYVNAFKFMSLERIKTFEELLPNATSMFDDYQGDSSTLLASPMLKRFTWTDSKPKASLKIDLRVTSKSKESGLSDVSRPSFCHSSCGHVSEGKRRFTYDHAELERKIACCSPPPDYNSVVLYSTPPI
# Procedure: as §1
# FLT3 (D835Y) = target: T5, FLT3 (D835Y) (Homo sapiens, UniProt P36888, D835Y); test: Hot-Spot kinase profiling; format: biochemical
# T5 construct: purchased Reaction Biology Corp
# Procedure: as §1
# ABL1 = target: T6, ABL1 (Homo sapiens, UniProt P00519); test: Hot-Spot kinase profiling; format: biochemical; settings: read-out: % Enzyme Activity (Relative to DMSO Controls) ABL1
# T6 construct: purchased Reaction Biology Corp. (HotSpot kinase assay)
# Procedure: as §1
# BTK = target: T7, BTK (Homo sapiens, UniProt Q06187); test: Hot-Spot kinase profiling; format: biochemical; settings: read-out: % Enzyme Activity (Relative to DMSO Controls) BTK
# T7 construct: purchased Reaction Biology Corp. (HotSpot kinase assay)
# Procedure: as §1
# c-MET = target: T8, c-MET (Homo sapiens, UniProt P08581); test: Hot-Spot kinase profiling; format: biochemical; settings: read-out: % Enzyme Activity (Relative to DMSO Controls) c-MET
# T8 construct: purchased Reaction Biology Corp. (HotSpot kinase assay)
# Procedure: as §1
# FMS = target: T9, FMS (Homo sapiens, UniProt P07333); test: Hot-Spot kinase profiling; format: biochemical; settings: read-out: % Enzyme Activity (Relative to DMSO Controls) FMS
# T9 construct: purchased Reaction Biology Corp
# Procedure: as §1
# Aurora B = target: T10, Aurora B (Homo sapiens, UniProt Q96GD4); test: Hot-Spot kinase profiling; format: biochemical; settings: read-out: % Enzyme Activity (Relative to DMSO Controls) Aurora B
# T10 construct: purchased Reaction Biology Corp. (HotSpot kinase assay)
# T10 sequence (Q96GD4 whole entry): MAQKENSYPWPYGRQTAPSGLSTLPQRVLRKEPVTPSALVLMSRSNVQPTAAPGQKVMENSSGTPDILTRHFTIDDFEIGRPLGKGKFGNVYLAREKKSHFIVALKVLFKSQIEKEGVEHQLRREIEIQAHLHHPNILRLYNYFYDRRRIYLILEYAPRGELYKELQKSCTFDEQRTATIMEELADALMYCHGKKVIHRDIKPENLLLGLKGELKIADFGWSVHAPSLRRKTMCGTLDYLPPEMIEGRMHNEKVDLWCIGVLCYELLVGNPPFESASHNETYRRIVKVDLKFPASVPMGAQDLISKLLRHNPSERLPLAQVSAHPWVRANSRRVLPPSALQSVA
# Procedure: as §1
# FLT3 (ITD)-W51 = target: T11, FLT3 (ITD)-W51 (Homo sapiens, UniProt P36888, DUP595-601); test: Hot-Spot kinase profiling; format: biochemical
# T11 construct: purchased Reaction Biology Corp
# Procedure: as §1
# FLT3 (F594_R595insREY) = target: T12, FLT3 (F594_R595insREY) (Homo sapiens, UniProt P36888, INS594REY); test: Hot-Spot kinase profiling; format: biochemical
# T12 construct: purchased Reaction Biology Corp
# Procedure: as §1
# CDK5/p35 = target: T13, CDK5/p35 (Homo sapiens, UniProt Q00535); test: Hot-Spot kinase profiling; format: biochemical
# T13 construct: purchased Reaction Biology Corp
# T13 sequence (Q00535 whole entry): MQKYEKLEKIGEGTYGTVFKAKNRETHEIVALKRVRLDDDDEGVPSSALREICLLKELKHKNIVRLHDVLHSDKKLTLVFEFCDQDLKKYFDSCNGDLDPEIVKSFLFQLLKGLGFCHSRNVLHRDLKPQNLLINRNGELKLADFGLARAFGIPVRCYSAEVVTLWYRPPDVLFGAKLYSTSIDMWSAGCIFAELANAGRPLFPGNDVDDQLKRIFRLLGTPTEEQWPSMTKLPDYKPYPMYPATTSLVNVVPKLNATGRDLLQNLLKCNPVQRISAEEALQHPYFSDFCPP
# T13 sequence (Q15078 whole entry partner): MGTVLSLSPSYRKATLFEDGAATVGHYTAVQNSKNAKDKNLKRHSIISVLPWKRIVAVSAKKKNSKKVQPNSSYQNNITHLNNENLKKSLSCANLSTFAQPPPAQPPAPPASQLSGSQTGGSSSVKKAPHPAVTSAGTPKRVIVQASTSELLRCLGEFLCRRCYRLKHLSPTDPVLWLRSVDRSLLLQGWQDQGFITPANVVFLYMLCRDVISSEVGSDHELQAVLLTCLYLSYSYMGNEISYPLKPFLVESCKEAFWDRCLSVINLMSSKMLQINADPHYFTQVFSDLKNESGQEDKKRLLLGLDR
# Procedure: as §1
# CDK4/cyclin D1 = target: T14, CDK4/cyclin D1 (Homo sapiens, UniProt P11802); test: Hot-Spot kinase profiling; format: biochemical
# T14 construct: purchased Reaction Biology Corp
# T14 sequence (P11802 whole entry): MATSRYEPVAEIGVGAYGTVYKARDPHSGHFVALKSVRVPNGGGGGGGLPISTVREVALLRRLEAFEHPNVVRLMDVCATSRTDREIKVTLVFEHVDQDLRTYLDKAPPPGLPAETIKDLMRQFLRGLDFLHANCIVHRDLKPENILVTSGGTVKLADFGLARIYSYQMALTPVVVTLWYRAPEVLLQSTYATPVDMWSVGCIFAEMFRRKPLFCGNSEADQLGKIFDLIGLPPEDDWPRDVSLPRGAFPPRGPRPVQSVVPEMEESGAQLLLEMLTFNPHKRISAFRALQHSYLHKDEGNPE
# T14 sequence (P24385 whole entry partner): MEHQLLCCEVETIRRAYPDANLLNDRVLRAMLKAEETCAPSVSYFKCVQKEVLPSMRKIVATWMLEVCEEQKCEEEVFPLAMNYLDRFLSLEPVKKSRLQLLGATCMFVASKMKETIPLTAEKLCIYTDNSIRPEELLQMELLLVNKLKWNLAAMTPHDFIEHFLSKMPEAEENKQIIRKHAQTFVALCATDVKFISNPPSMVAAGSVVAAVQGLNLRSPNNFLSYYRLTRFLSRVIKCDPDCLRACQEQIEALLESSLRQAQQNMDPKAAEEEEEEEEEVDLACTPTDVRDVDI
# Procedure: as §1
# ALK = target: T15, ALK (Homo sapiens, UniProt Q9UM73); test: Hot-Spot kinase profiling; format: biochemical; settings: read-out: % Enzyme Activity (Relative to DMSO Controls) ALK
# T15 construct: purchased Reaction Biology Corp. (HotSpot kinase assay)
# Procedure: as §1
# CDK7/cyclin H = target: T16, CDK7/cyclin H (Homo sapiens, UniProt P50613); test: Hot-Spot kinase profiling; format: biochemical
# T16 construct: purchased Reaction Biology Corp
# T16 sequence (P50613 whole entry): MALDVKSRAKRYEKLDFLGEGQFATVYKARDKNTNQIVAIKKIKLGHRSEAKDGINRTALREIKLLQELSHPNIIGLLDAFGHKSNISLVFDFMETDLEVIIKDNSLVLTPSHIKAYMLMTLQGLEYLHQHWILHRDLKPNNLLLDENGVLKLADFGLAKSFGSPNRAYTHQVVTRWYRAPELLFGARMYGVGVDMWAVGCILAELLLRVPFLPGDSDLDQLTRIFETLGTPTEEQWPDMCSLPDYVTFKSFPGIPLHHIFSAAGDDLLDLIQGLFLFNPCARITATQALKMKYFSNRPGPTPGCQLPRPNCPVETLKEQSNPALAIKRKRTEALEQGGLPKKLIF
# T16 sequence (P51946 whole entry partner): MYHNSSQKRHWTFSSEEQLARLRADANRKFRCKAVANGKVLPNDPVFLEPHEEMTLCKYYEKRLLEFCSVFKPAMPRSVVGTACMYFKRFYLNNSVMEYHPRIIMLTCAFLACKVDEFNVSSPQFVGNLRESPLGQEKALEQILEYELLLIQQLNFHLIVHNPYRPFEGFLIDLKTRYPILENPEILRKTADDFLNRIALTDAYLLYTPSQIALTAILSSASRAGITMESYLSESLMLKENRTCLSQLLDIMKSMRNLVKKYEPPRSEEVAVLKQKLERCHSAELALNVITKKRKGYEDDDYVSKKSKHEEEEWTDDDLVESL
# T16 sequence (P51948 whole entry partner): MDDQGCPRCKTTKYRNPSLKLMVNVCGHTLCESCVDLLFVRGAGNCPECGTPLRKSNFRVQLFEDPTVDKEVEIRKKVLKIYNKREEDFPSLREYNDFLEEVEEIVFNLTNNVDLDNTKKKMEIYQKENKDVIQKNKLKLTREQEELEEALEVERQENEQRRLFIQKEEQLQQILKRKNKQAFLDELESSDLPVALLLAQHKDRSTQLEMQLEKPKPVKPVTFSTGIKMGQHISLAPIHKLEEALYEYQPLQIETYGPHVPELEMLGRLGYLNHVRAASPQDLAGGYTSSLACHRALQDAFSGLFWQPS
# Procedure: as §1
# CDK9/cyclin K = target: T17, CDK9/cyclin K (Homo sapiens, UniProt P50750); test: Hot-Spot kinase profiling; format: biochemical
# T17 construct: purchased Reaction Biology Corp
# T17 sequence (P50750 whole entry): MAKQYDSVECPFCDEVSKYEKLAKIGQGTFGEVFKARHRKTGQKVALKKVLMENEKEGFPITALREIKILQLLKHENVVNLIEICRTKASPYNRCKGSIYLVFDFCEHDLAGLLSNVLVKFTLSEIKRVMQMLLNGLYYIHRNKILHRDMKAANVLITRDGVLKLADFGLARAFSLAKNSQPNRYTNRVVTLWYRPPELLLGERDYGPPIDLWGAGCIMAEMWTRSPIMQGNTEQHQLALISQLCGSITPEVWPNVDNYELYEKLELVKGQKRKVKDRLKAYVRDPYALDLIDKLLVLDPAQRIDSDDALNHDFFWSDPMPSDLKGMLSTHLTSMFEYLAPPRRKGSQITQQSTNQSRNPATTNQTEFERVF
# T17 sequence (O75909 whole entry partner): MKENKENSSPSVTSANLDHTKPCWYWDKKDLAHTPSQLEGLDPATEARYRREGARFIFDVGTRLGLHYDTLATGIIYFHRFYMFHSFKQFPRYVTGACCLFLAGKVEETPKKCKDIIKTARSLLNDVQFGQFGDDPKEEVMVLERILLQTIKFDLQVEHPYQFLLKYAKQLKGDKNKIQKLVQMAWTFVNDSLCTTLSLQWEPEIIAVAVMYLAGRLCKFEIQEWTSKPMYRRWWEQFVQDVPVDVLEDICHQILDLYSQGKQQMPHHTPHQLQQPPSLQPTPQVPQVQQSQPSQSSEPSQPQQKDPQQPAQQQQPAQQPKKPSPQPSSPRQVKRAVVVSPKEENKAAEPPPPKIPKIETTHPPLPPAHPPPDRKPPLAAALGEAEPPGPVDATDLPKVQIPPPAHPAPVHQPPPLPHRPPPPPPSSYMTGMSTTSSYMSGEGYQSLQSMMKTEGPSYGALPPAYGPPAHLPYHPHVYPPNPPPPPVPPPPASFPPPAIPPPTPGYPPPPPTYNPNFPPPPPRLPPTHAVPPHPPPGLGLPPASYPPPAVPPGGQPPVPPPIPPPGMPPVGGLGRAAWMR
# Procedure: as §1
# Aurora A = target: T18, Aurora A (Homo sapiens, UniProt O14965); test: Hot-Spot kinase profiling; format: biochemical; settings: read-out: % Enzyme Activity (Relative to DMSO Controls) Aurora A
# T18 construct: purchased Reaction Biology Corp. (HotSpot kinase assay)
# Procedure: as §1
# FGFR1 = target: T19, FGFR1 (Homo sapiens, UniProt P11362); test: Hot-Spot kinase profiling; format: biochemical; settings: read-out: % Enzyme Activity (Relative to DMSO Controls) FGFR1
# T19 construct: purchased Reaction Biology Corp. (HotSpot kinase assay)
# Procedure: as §1
# [1] = target: T20, FLT3 (Y591-V592insVDFREYEYD) (Homo sapiens, UniProt P36888, INS591VDFREYEYD); test: Hot-Spot kinase profiling; format: biochemical
# T20 construct: purchased Reaction Biology Corp
# Procedure: as §1
# [2] = system: phosphorylation of the retinoblastoma protein (Rb); test: Western blot, phosphorylation of Rb in MV4-11 cells; format: cell-based, human; settings: MV4-11, 4 h; dose-dependent; at 1 μM comparable with AT-7519
# Procedure: Analysis of pFLT3, pSTAT5, pERK, pAKT, and pRb in vitro: to determine the levels of pFLT3, pSTAT5, pERK, pAKT, and pRb, cells were seeded in a 6-well cell culture plate at a density of 400,000 cells per well for MV4-11 in a total volume of 1800 μL and incubated overnight in medium containing 10% fetal bovine serum (Life Technologies, Rockville, MD, USA). Then 200 μL of serially diluted compounds were added to each well the next day. Cell lysates were harvested after 4 h and pFLT3, pSTAT5, pERK, pAKT, or pRb were quantified using assay kits for FLT3/Phospho-FLT3Tyr589/591, pSTAT5 (Tyr694)/total STAT5, pRb (Ser807)/total Rb (Nanjin keyGen Biotech Company, Nanjing, China) following the manufacturer’s protocols.
# A498 = test: NCI60 screening; format: cell-based; settings: Homo sapiens, Renal Cancer panel
# From the text: With these findings, we submitted compound 8t to National Cancer Institute (NCI) to evaluate their antitumor efficacy against 60 human cancer cell lines.
smiles,measurement,setting,value
O=C(Nc1ccc(N2CCNCC2)cc1)c1n[nH]cc1Nc1ncnc2sc3c(c12)CCC3 [Compound 8t],remaining activity at 0.15 µM,CHK2,38.4%
same,remaining activity at 0.15 µM,"FLT3 (F594_R595insR); 0.15 μM, read-out: % Enzyme Activity (Relative to DMSO Controls) FLT3 (F594_R595insR)",0.47%
same,IC50,FLT3 (F594_R595insR); Table 5 kinase profiling,0.63 ± 0.09 nM
same,remaining activity at 0.15 µM,JAK2,32%
same,remaining activity at 0.15 µM,"FLT1/VEGFR1; 0.15 μM, read-out: % Enzyme Activity (Relative to DMSO Controls) FLT1/VEGFR1",6.08%
same,IC50,FLT1/VEGFR1; Table 5 kinase profiling,12.4 ± 0.19 nM
same,remaining activity at 0.15 µM,"FLT3 (D835Y); 0.15 μM, read-out: % Enzyme Activity (Relative to DMSO Controls) FLT3 (D835Y)",0.27%
same,IC50,FLT3 (D835Y); Table 5 kinase profiling,0.75 ± 0.04 nM
same,remaining activity at 0.15 µM,ABL1,81%
same,remaining activity at 0.15 µM,BTK,97.1%
same,remaining activity at 0.15 µM,c-MET,99%
same,remaining activity at 0.15 µM,FMS,63%
same,remaining activity at 0.15 µM,Aurora B,55.3%
same,remaining activity at 0.15 µM,"FLT3 (ITD)-W51; 0.15 μM, read-out: % Enzyme Activity (Relative to DMSO Controls) FLT3 (ITD)-W51",0.51%
same,IC50,FLT3 (ITD)-W51; Table 5 kinase profiling,0.94 ± 0.09 nM
same,remaining activity at 0.15 µM,"FLT3 (F594_R595insREY); 0.15 μM, read-out: % Enzyme Activity (Relative to DMSO Controls) FLT3 (F594_R595insREY)",0.8%
same,IC50,FLT3 (F594_R595insREY); Table 5 kinase profiling,1.38 ± 0.11 nM
same,remaining activity at 0.15 µM,"CDK5/p35; 0.15 μM, read-out: % Enzyme Activity (Relative to DMSO Controls) CDK5/p35",9.6%
same,IC50,CDK5/p35; Table 5 kinase profiling,9.64 ± 0.81 nM
same,remaining activity at 0.15 µM,"CDK4/cyclin D1; 0.15 μM, read-out: % Enzyme Activity (Relative to DMSO Controls) CDK4/cyclin D1",1.56%
same,IC50,CDK4/cyclin D1; Table 5 kinase profiling,0.78 ± 0.04 nM
same,remaining activity at 0.15 µM,ALK,16.6%
same,remaining activity at 0.15 µM,"CDK7/cyclin H; 0.15 μM, read-out: % Enzyme Activity (Relative to DMSO Controls) CDK7/cyclin H",19.9%
same,IC50,CDK7/cyclin H; Table 5 kinase profiling,21.3 ± 1.01 nM
same,remaining activity at 0.15 µM,"CDK9/cyclin K; 0.15 μM, read-out: % Enzyme Activity (Relative to DMSO Controls) CDK9/cyclin K",7.2%
same,IC50,CDK9/cyclin K; Table 5 kinase profiling,14.2 ± 0.82 nM
same,remaining activity at 0.15 µM,Aurora A,38%
same,remaining activity at 0.15 µM,FGFR1,40%
same,IC50,"[1]; Table 5 kinase profiling, read-out: IC50 FLT3 (Y591-V592ins[…])",0.66 ± 0.08 nM
same,remaining activity at 0.15 µM,"[1]; read-out: % Enzyme Activity (Relative to DMSO Controls) FLT3 (Y591-V592insVDFREYEYD), 0.15 μM, read-out: % Enzyme Activity (Relative to DMSO Controls) FLT3 (Y591-V592ins[…])",0.54%
same,phosphorylation of the retinoblastoma protein (Rb),[2],inhibited
same,GI50,A498,140 nM
